# US9096833B2, “Methods of treating pre-malignant ductal cancer with autophagy inhibitors” (GEORGE MASON UNIVERSITY, priority 2009, dated 2015)
# Assays:
# [1] = system: DCIS organoid cell cultures; assay: H&E histomorphology of chloroquine treated DCIS organoid cell cultures; format: cell-based, human; conditions: chloroquine phosphate (50 μM)
# Method: (§1) Pharmacological inhibition of autophagy. […] CO-containing medium was replaced three times per week for a period of 6 months.
# Immunohistochemistry. Formalin fixed murine tissue or DCIS organoids were processed and paraffin embedded by commercial laboratories (AML Laboratories, Inc, Rosedale, Md. or Bi-Biomics, Nampa, Id.). Formalin fixed paraffin embedded (FFPE) tissue sections (5 μm or 1 μm thickness) mounted on positively charged glass slides were baked at 56° C. for 20 min., deparaffinized in xylene and rehydrated in a series of graded alcohols (100%, 95%, and 70%) with a final rinse in wash buffer (Dako, Carpinteria, Calif., USA). Antigen retrieval, when necessary, was performed with proteinase K or heat induced epitope retrieval. Immunostaining was performed on a Dako Autostainer with an Envision+HRP staining kit (Dako) per manufacturer's instructions. Stained tissue sections were counterstained with Hematoxylin (Dako), rinsed in distilled water and developed in Scott's Tap Water Substitute solution. Cover slips were applied using aqueous mounting medium (Paramount; Dako). Images were captured with an Olympus BX51 microscope using 4×, 10×, 20×, or 100× objectives.
# [2] = system: DCIS malignant precursor cells
# Method: Tissue collection. […] Gross tissue pathology at the time of procurement was assessed by a board certified pathologist. Tissue containing DCIS lesions was excised for further macrodissection and rinsed in sterile phosphate buffered saline to remove sentinel lymph node dye. Using sterile technique, ductal tissue was dissected from surrounding breast adipose/fibrous tissue. The ductal tissue was rinsed in serum free DMEM/F12 medium (Invitrogen, Carlsbad, Calif., USA) supplemented with human recombinant EGF (10 ng/mL; Cell Signaling Technology, Danvers, Mass., USA or Millipore, Billerica, Mass., USA), insulin (10 μg/mL; Roche, Indianapolis, Ind., USA), streptomycin sulfate (100 μg/mL; Sigma, St. Louis, Mo., USA) and gentamicin sulfate (20 μg/mL; Sigma) prior to distribution in culture flasks (MidSci, St. Louis, Mo., USA). Ductal tissue was allowed to attach to the culture surface and observed daily for cellular outgrowths. Non-adherent organoids were removed from the culture flask.
# Organoid ex vivo culture. Dissected breast ductal tissue was grown in 115 cm^2 TPP reclosable flasks (MidSci) or 10 cm^2 culture tubes (MidSci) in serum free DMEM/F12 medium supplemented with human recombinant EGF (10 ng/mL), insulin (10 μg/mL), streptomycin sulfate (100 μg/mL) and gentamicin sulfate (20 μg/mL), with or without 0.36% (v/v) murine Engelbreth-Holm-Swarm (EHS) derived, growth factor reduced, basement membrane extract (Trevigen, Gaithersburg, Md., USA) at 37° C. in a humidified 5.0% CO2 atmosphere. Medium was replaced three times per week. Cultures were maintained continuously for up to one year. Periodically, organoids were removed, under microscopic visualization, for propagation into new culture flasks or phenotypic and molecular analysis.
# as §1
# (§2) Statistics. The Student T-test, two tailed with Welch's correction, was used to calculate the p-value, and to determine the statistical difference of epithelial outgrowth area before and after CQ treatment. P values <0.05 were considered significant. Standard deviation (SO) or standard error of the mean (SEM) was calculated for group comparisons. Wilcoxon rank sum was used to determine the differences between CQ treated and untreated groups for the reverse phase protein arrays. A p=0.1 was considered different for small sample sizes.
# [3] = system: autophagy associated pathways; assay: Cell signaling pathway mapping by reverse phase protein microarray (RPMA) of DCIS spheroids pre and post chloroquine; format: cell-based, human; conditions: for autophagy associated signal pathway proteins/endpoints (Atg5, AKT, ERK, mTOR, IRS-1, p38 etc.) by RPMA: chloroquine phosphate 50 μM for 4 days, spheroids pre vs post treatment, n=3
# Method: as §1, §2
# [4] = system: DCIS organoid culture spheroids; assay: Autophagosome lysosome imaging with LysoTracker Red in DCIS organoid culture; format: cell-based, human; conditions: chloroquine phosphate (50 μM) for 2 weeks
smiles,measurement,setting,value
"CCN(CC)CCCC(C)Nc1ccnc2cc(Cl)ccc12 (stereo not drawn) [chloroquine, N′-(7-chloroquinolin-4-yl)-N,N-diethyl-pentane-1,4-diamine]",histology of organoid cultured in the presence of chloroquine for 6 months,[1]; 6 months,complete absence of cellular outgrowths and degenerated cells within the duct
same,histology of organoid 2 days post chloroquine treatment,[1]; 2 days,Degeneration of the invading DCIS cells within the organoid
same,explants that did not have any spheroids following chloroquine treatment,"[2]; case 09-148, chloroquine phosphate 50 μM",12 out of 14
same,spheroids after treatment,"[2]; case 09-301, n=3, 20.5±7.8 prior to treatment",no spheroids observed
same,ex vivo invasion of autologous stroma,[2]; chloroquine phosphate,suppressed ex vivo invasion of autologous stroma
same,"inhibition of spheroid outgrowth, CQ in combination with tamoxifen","[2]; cultured DCIS cells, in combination with anti-estrogen compound (tamoxifen)",pronounced effect
same,"number of spheroids generated post chloroquine treatment, majority of explants","[2]; two different patient DCIS cases, up to 113 spheroids per duct organoid untreated",zero
same,apoptosis (elevation of cleaved PARP Asp214),[3]; as early as 48 hours post treatment,induced apoptosis
same,"autophagy associated signal pathway proteins/endpoints (Atg5, AKT, ERK, mTOR, IRS-1, p38 etc.) by RPMA",[3]; listed as CQ,suppressed
same,"autophagy associated signal pathway proteins/endpoints (Atg5, AKT, ERK, mTOR, IRS-1, p38 etc.) by RPMA",[3]; listed as Chloroquine,markedly inhibited
same,"autophagy associated signal pathway proteins/endpoints (Atg5, AKT, ERK, mTOR, IRS-1, p38 etc.) by RPMA",[3]; listed as chloroquine phosphate,suppressed autophagy associated proteins
same,spheroid integrity and LysoTracker Red distribution,[4],"Dissociation of the spheroid, and diffuse accumulation of LysoTracker Red"
